Data taken from a melting point compilation (Tetko et al.; mined from patent text by program, amines drawn as free bases though some values may be those of a salt).

Compared with `CCCCCCCCCC(C)CNc1cccc(-c2ccnc3c(C(=O)c4cccs4)cnn23)c1` (stereo not drawn), `O=C(c1cccs1)c1cnn2c(-c3cccc(-c4ccc(CN5CCOCC5)cc4)c3)ccnc12` is higher in melting point: 108 to 110 °C for the first, 175 to 178 °C for the second.

First: O=C(O)C1(c2ccco2)CC1
Second: O=C1OCCC1=Cc1ccccc1O
The melting point of the first is lower: 113 to 114 °C for the first, 162 to 164 °C for the second.

First: COC(=O)c1cncc(SCc2ccc(OC)cc2)c1
Second: CCCOC(=O)CC(c1ccc(OC)cc1)N1C(=O)c2ccccc2C1=O (stereo not drawn)
The melting point of the first is higher: 72 to 74 °C for the first, 51.2 to 52.8 °C for the second.

Compared with `COC(=O)[C@H](Cc1c(Br)[nH]c2cc(Br)c(OC)cc12)NC(C)=O`, `CCOC(=O)C(Cc1cnc2ccc(OC)cc2c1)(NC(C)=O)C(=O)OCC` is lower in melting point: 174 to 175 °C for the first, 151 to 152 °C for the second.

First: COc1cccc2c1nc(C)c1ccn(-c3ccccc3C)c12
Second: CC(=O)Nc1ccc2nc3ccccc3c(-c3cc(C)ccc3C)c2c1
The melting point of the first is lower: 143 to 145 °C for the first, 236 to 238 °C for the second.

First: Fc1ccc(Cl)c(-c2c(Cl)nc3ncnn3c2Cl)c1
Second: O=C(O)c1cc(-c2ncnc(C(F)F)c2Cl)c(F)cc1Cl
The melting point of the first is lower: 137 °C for the first, 217 to 219 °C for the second.

First: CCCCC(=O)Nc1ccc(C(=O)Nc2ccc3cc(CN4CCCC4)cnc3c2C)cc1
Second: COC(=O)c1ccc(C(=O)Nc2ccc(-n3nc(C(F)(F)F)cc3C(F)(F)F)cc2)cc1
The melting point of the first is higher: 206 to 207 °C for the first, 195 to 196 °C for the second.

First: CC(C)(C)OC(=O)NCC(O)CN (stereo not drawn)
Second: CC(C)(C)OC(=O)NCCCn1ncc2cc(Br)ccc2c1=O
The melting point of the first is lower: 77 to 79 °C for the first, 130 to 132 °C for the second.

First: Cc1oc(-c2ccccc2)nc1CCOc1ccc(CC#N)cc1
Second: CCOC(=O)CCc1ccc2oc(Cc3ccc4ccccc4c3)nc2c1
The melting point of the first is higher: 109 to 110 °C for the first, 81 to 82 °C for the second.

First: O=C(O)c1ccccc1Nc1ccc(CCc2ccc(O)c(O)c2)cc1
Second: CCc1cc2c(ccc(=O)n2Cc2ccc(NC(=O)c3ccccc3S(=O)(=O)O)cc2)c(CC)n1
The melting point of the first is lower: 215 to 217 °C for the first, 233 to 236 °C for the second.

Compared with `Cc1nc(-c2ccccc2)cc(-c2cccc([N+](=O)[O-])c2)c1CBr`, `NC(=O)Cn1c(-c2ccccc2)nc2cccnc21` is higher in melting point: 155 to 157 °C for the first, 226 to 227 °C for the second.

Compared with `c1ccc(NN2Cc3ccccc3C2)nc1`, `O=C(c1cccnc1Cl)N1CCN=C1Cc1ccccc1Cl` is lower in melting point: 130 to 131 °C for the first, 128 to 130 °C for the second.

Compared with `COc1cc2ncc(C#N)c(Nc3ccccc3C)c2cc1OC`, `CCN1CCN(Cc2ccc(-c3cc4ncc(C#N)c(Nc5cc(OC)c(Cl)cc5Cl)c4cc3OC)cc2)CC1` is lower in melting point: 137 to 141 °C for the first, 126 to 130 °C for the second.

Compared with `Cc1cc(C2OC(C)(C)N=C2c2ccccc2)cc(C)c1N(C)C` (stereo not drawn), `CN(Sc1nc2ccccc2s1)C(=O)Oc1cccc2c1OC(C)(C)C2` is higher in melting point: 91 to 92 °C for the first, 92 to 93 °C for the second.

Compared with `CS(=O)c1ccc(-n2cnnn2)cc1` (stereo not drawn), `NS(=O)(=O)c1ccc(-n2nc(C(F)F)cc2-c2nc3ccc(F)cc3s2)cc1` is higher in melting point: 175 to 176 °C for the first, 255 °C for the second.

First: O=C(Nc1nccs1)c1cn(-c2ccccc2)c2ccccc2c1=O
Second: O=C(c1ccccc1)n1c2c(c3ccccc31)CC(CO)CC2 (stereo not drawn)
The melting point of the first is higher: 290 °C for the first, 105 to 107 °C for the second.

Compared with `COc1ccccc1NC1CN(C(c2ccccc2)c2ccccc2)C1`, `COc1cc(-c2nc3ccccc3n2Cc2ccc(C)cc2)cc(OC)c1OC` is higher in melting point: 75 to 77 °C for the first, 84.5 °C for the second.

Compared with `CN(C)C(=O)Sc1ccc2ccncc2c1Cl`, `CN(C)c1snc2c1c(N)nc(=O)n2Cc1ccccc1` is higher in melting point: 140 to 142 °C for the first, 190 to 195 °C for the second.

Compared with `CCNC(=O)c1c(Cl)cccc1[Si](C)(C)C1CCCCC1`, `CCOC(=O)c1cn(CC)c2cc(C3CCCCC3)ccc2c1=O` is higher in melting point: 111 to 113 °C for the first, 176 to 178 °C for the second.

First: CC(C)(C)OC(=O)NCc1ccc(C(=O)NCCC(=O)OCc2ccccc2)cc1
Second: CC(C)(C)OC(=O)CN(C(=O)CCl)c1ccccc1
The melting point of the first is higher: 113 to 116 °C for the first, 86 °C for the second.

Compared with `CC(C)(C)C(O)(COc1ccccc1)c1cncnc1` (stereo not drawn), `CCOCc1nc2cnc3ccc(OCc4ccccc4)cc3c2n1CC(C)(C)O` is higher in melting point: 127 to 129 °C for the first, 138 to 140 °C for the second.

`CCNc1cccnc1N1CCN(C(=O)c2ccc(C(=O)NCc3ccccn3)cn2)CC1` and `Cn1c(C(=O)N2CCCC2)cc2cc(OCCNCC(O)COc3ccccc3)ccc21` (stereo not drawn) cannot be ordered by melting point: 129 to 131 °C for the first, 130 °C for the second.

First: O=c1c2c(Cc3cccc(OC(F)(F)F)c3)n[nH]c2c2cccnc2n1-c1cccc(OC(F)(F)F)c1
Second: O=C1CCC(N2Cc3c(OCc4cccc(CN5CCn6nc(C(F)(F)F)nc6C5)c4)cccc3C2=O)C(=O)N1 (stereo not drawn)
The melting point of the first is lower: 174 to 177 °C for the first, 213 to 215 °C for the second.

First: COc1ccccc1C(C)(O)c1ocnc1C (stereo not drawn)
Second: CCOC(=O)c1c(Nc2ccccc2[N+](=O)[O-])c(C)cn1C
The melting point of the first is lower: 74 to 75 °C for the first, 114 °C for the second.

First: CCOC(=O)c1nc(CCl)n(-c2ccccc2C(=O)c2ccccn2)n1
Second: Cc1nc(-c2ccccc2C(F)(F)F)c(CCC(=O)O)o1
The melting point of the first is higher: 129 to 130 °C for the first, 118 to 119 °C for the second.

Compared with `CC(=O)Nc1cnn2c1-c1ccccc1N(C(C)=O)C2C` (stereo not drawn), `CCC(=O)N[C@@H]1CN(C(=O)c2nn(C)c3ccccc23)C[C@@H]1C` (relative stereo) is lower in melting point: 218 to 220 °C for the first, 139 to 141 °C for the second.

First: COCCc1ccc(OCC(O)CNCCNC(=O)C2CCCOC2)cc1 (stereo not drawn)
Second: CCOC(=O)CCNCC(O)COc1ccc(OC)cc1C#N (stereo not drawn)
The melting point of the first is higher: 107 to 108 °C for the first, 76 °C for the second.

Compared with `CCOC(=O)c1cn(-c2nnc(C)s2)c2nc(Cl)c(F)cc2c1=O`, `CCOC(=O)c1cn(CC)c2c(F)c(C(C)=O)c(F)cc2c1=O` is lower in melting point: 159 to 162 °C for the first, 129 to 130 °C for the second.

First: CC(=O)N1C(C)(C)CC(Oc2nc(Cl)nc(N3C(C)(C)CCCC3(C)C)n2)CC1(C)C
Second: CCC1(CC)C(=O)N(C(C)(C)C)CC(C)(C)N1OC(C)(C)C#N
The melting point of the first is higher: 114 to 116 °C for the first, 68 to 71 °C for the second.

Compared with `CCOC(=O)Cc1cccc(Cn2ccc(OCc3ccc(F)cc3F)c(Br)c2=O)c1`, `CCCc1cc(Cn2c(=O)ccc3c(CC)nc(CC)cc32)ccc1O[Si](C)(C)C(C)(C)C` is higher in melting point: 95 to 98 °C for the first, 103 to 105 °C for the second.

First: O=C(NCCF)c1ccc(CCN2CC=C(c3c[nH]c(-c4ccc(F)cc4)c3-c3ccncc3)CC2)cc1
Second: CC(C)C(C(=O)O)c1ccc(OCCNC(=O)C2Cc3ccccc3N2S(=O)(=O)c2ccc(-c3cc(C(F)(F)F)ccc3Cl)cc2)cc1 (stereo not drawn)
The melting point of the first is higher: 209 to 211 °C for the first, 84 to 88 °C for the second.

First: Oc1ccc(-c2ncc3ncc(Cl)cc3n2)cc1
Second: CN1c2cc(Cl)ccc2-c2nc3ccc(Cl)cc3c3cccc1c23
The melting point of the first is lower: 231 to 232 °C for the first, 273 to 275 °C for the second.

Compared with `Cc1cc(Cl)ccc1OCC(=O)N1CCSC1C(=O)O` (stereo not drawn), `Cc1cc2c(cc1Cl)N(C)C(=O)C2(NC(=O)CN1CCN(C)CC1)c1ccc(Cl)cc1` (stereo not drawn) is higher in melting point: 147 to 148 °C for the first, 217 to 219 °C for the second.

First: CC1(C)CCN(C(=O)Nc2cccnc2)c2cc(C#N)ccc21
Second: Cc1c(C(=O)Nc2ccc(N3CCC(N4CCNCC4)CC3)c(C#N)c2)cnn1-c1ccc(Cl)cc1
The melting point of the first is lower: 183 to 185 °C for the first, 226 °C for the second.

`COc1ccc2c(c1)CC(NNc1ncnc3c1ncn3C1OC(CO)C(O)C1O)CO2` (stereo not drawn) and `COCOc1ccc(CCCO)c(Oc2ncc(C(F)(F)F)cc2Cl)c1` cannot be ordered by melting point: 90 to 95 °C for the first, 92.5 to 93.5 °C for the second.

Compared with `COc1cc(OC)nc(CN2C(=O)C3(COc4cc5c(cc43)OCCO5)c3ccccc32)n1` (stereo not drawn), `CCNC(=O)c1ccc(N2CCN(Cc3cc(C)c4c(c3)NC(=O)C(C)O4)CC2)c(F)c1` (stereo not drawn) is higher in melting point: 169 to 170 °C for the first, 242 to 245 °C for the second.

First: CC(O)CSc1cc(C(C)(C)C)c(O)c(C(C)(C)C)c1 (stereo not drawn)
Second: CCC(CCSc1cc(OC)c(O)c(OC)c1)(c1cccs1)N(C)C (stereo not drawn)
The melting point of the first is higher: 82 °C for the first, 78 to 80 °C for the second.

First: CCCCCCCCCCNC(=O)c1cc(C(=O)NCCCCCCCCCC)cc([N+](=O)[O-])c1
Second: CCCCNC(=O)c1cccc(S(=O)(=O)NC(=O)c2ccc(C(=O)NCC(=O)O)nc2)c1
The melting point of the first is lower: 115 to 116 °C for the first, 220 °C for the second.

First: CC(C)C1(COC(C)(C)C)Cc2cc(OCC(=O)O)c(Cl)c(Cl)c2C1=O (stereo not drawn)
Second: CN(Cc1cccc2c1CN(C1CCC(=O)NC1=O)C2=O)C(=O)CCNC(=O)OC(C)(C)C (stereo not drawn)
The melting point of the first is lower: 148 to 149 °C for the first, 222 to 224 °C for the second.

Compared with `CC(=O)N(c1ccc(N2CCN(C)CC2)cc1)c1ncc2c(n1)S/C(=C/c1ccc(C(=O)O)cc1)C(=O)N2`, `O=C(O)c1ccc(S(=O)(=O)Nc2ccc(F)c(C(F)(F)F)c2)cc1` is lower in melting point: 326 to 330 °C for the first, 238 to 241 °C for the second.

Compared with `O=[N+]([O-])c1cn2c(n1)OC[C@@H](OCc1csc(-c3ccc(OC(F)(F)F)cc3)n1)C2`, `O=C(Nc1nc(C(F)(F)F)co1)C1c2ccc(F)cc2Oc2cc(F)ccc21` is higher in melting point: 140 to 141 °C for the first, 265 °C for the second.

First: CC(C)(c1ccc(OCCO)cc1)c1ccc(OCCO)cc1
Second: COc1ccc(CCC2OC(=O)NC2=O)cc1O (stereo not drawn)
The melting point of the first is lower: 110 to 111 °C for the first, 121 to 122 °C for the second.

Compared with `Cc1cc(NS(=O)(=O)c2ccc(F)cc2)cc(C)c1S(=O)(=O)C[N+](=O)[O-]`, `CN(c1cccc2cc(-c3ncc(CC#N)s3)[nH]c12)S(=O)(=O)c1cccs1` is higher in melting point: 152 to 154 °C for the first, 186 to 187 °C for the second.

First: Cn1cnnc1SCCCCCN1CCN(c2cccc(C(F)(F)F)c2)CC1
Second: Cc1c(C(F)(F)F)ncn(-c2c(Cl)cc(C(F)(F)F)cc2C#N)c1=O
The melting point of the first is lower: 70 to 76 °C for the first, 154 to 155 °C for the second.

First: O=C(O)c1cc(Cl)c(F)c(F)c1F
Second: CCCCCCN(C(=O)C(C)C)c1sc(CC)cc1C(=O)O
The melting point of the first is higher: 123 to 124 °C for the first, 98 to 101 °C for the second.

First: CSc1sc(-c2ccn(S(C)(=O)=O)n2)c2c1C(=O)CC(C)(C)C2
Second: CC(C)c1nc2cc3c(cc2[nH]1)NC(=O)C3(C)C
The melting point of the first is lower: 193 to 195 °C for the first, 282 to 284 °C for the second.

First: Fc1ccc2c(c1)nc(/C=C/C1CCCCC1)n2-c1ccccn1
Second: Cn1c(=O)c2c(NC(=O)C3CCCCC3)onc2n(C)c1=O
The melting point of the first is lower: 109 to 110 °C for the first, 210 to 212 °C for the second.

First: Cc1cc2c(cc1C1=NNC(=O)CC1)N(C)C(=O)CO2
Second: CS(=O)(=O)c1cnc(Cl)c(Cl)c1
The melting point of the first is higher: 227 to 228 °C for the first, 129 to 130 °C for the second.

Going from `O=[N+]([O-])c1cc(Cl)c(Oc2cc(Cl)c(Cl)cc2Cl)cc1Oc1ccccc1` to `O=C(NCCCCCCCCCCCC(=O)OCC12CC3CC(CC(C3)C1)C2)NC12CC3CC(CC(C3)C1)C2`, the melting point falls from 84 °C to 68 °C.
